Test results as given in ChEMBL document CHEMBL1201862, “PubChem BioAssay data set” (2004).
Activity calls are given as the source filed them.

Experiments:
Cryptococcus neoformans = experiment: PubChem AID 686997; format: functional, organism-based
HeLa = experiment: HeLa cell cytotoxicity, dose response, cytotoxicity control, ATP luminescence, cherry-pick samples (AID 687004); format: functional, cell-based; conditions: Homo sapiens
Paired box protein Pax-8 = Paired box protein Pax-8 (Homo sapiens, UniProt Q06710); experiment: inhibitors of PAX8-driven TPO luciferase reporter, dose response, RMG-I cells, cherry-pick (AID 687027); format: functional, cell-based;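 further: luciferase reporter driven by Pax8 target thyroperoxidase promoter measured by SteadyGlo luminescence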
[1] = cytotoxicity in OV-90 ovarian cancer cells, dose response, PAX8 inhibitor project, cell-based, plate reader, dry powder, SA8 (AID 743149); format: functional
[2] = cytotoxicity dependent on PAX8, dose response, cell-based, plate reader, dry powder (AID 743049); format: functional
[3] = NIH3T3 fibroblast cytotoxicity, dose response, cytotoxicity control for PglD inhibitor project, cell-based, CellTiter-Glo luminescence, dry powder (AID 652044); format: functional
[4] = A2780 ovarian cancer cell cytotoxicity, dose response, cytotoxicity control, plate reader, dry powder samples (AID 743046); format: functional, cell-based
[5] = NIH:OVCAR-3 ovarian cancer cell cytotoxicity, dose response, PAX8 inhibitor project, plate reader, dry powder samples (AID 743044); format: functional, cell-based
[6] = IGROV1 ovarian cancer cell cytotoxicity, dose response, PAX8 inhibitor project, plate reader, dry powder samples (AID 743043); format: functional, cell-based; conditions: IGROV-1
[7] = non-specific cell cytotoxicity, dose response, cytotoxicity control for PAX8 inhibitor project, plate reader, dry powder samples (AID 743021); format: functional, cell-based
[8] = A549 cell cytotoxicity, dose response, cytotoxicity control, plate reader, cherry-pick, antagonist series (AID 743412); format: functional, cell-based
[9] = LGR2 antagonists, dose response, cell-based, HEK293, CRE-luciferase reporter, cherry pick (AID 743342); format: functional
[10] = inhibitors of non-replicating M. tuberculosis, dose response, luciferase, dry powder (AID 651619); format: functional; conditions: Mycobacterium tuberculosis
[11] = inhibitors of non-replicating M. tuberculosis, dose response, luciferase, dry powder (AID 651620); format: functional; conditions: Mycobacterium tuberculosis
[12] = growth inhibition of replicating M. tuberculosis, dose response, counter-screen, dry powder, IC90 (AID 651617); format: functional; conditions: Mycobacterium tuberculosis
Protein Wnt-3a = Protein Wnt-3a (Mus musculus, UniProt P27467); experiment: SAR analysis of small molecule antagonists of Gli-SUFU in a Wnt3a luminescent reporter assay.; format: functional
[13] = molecular target: Kappa-type opioid receptor (Homo sapiens, UniProt P41145); experiment: Late-stage fluorescence-based cell-based dose response assay for antagonists of kappa opioid receptor 1 (OPRK1).; format: functional
Mu-type opioid receptor = Mu-type opioid receptor (Homo sapiens, UniProt P35372); experiment: Late-stage results from the probe development effort to identify antagonists of OPRK1: luminescence-based cell-based dose response OPRM1 counterscreen, Set 2.; format: functional
[14] = molecular target: Delta-type opioid receptor (Homo sapiens, UniProt P41143); experiment: Late-stage results from the probe development effort to identify antagonists of OPRK1: fluorescence-based cell-based dose response OPRD1 counterscreen, Set 2.; format: functional
[15] = molecular target: Sphingosine 1-phosphate receptor 1 (Homo sapiens, UniProt P21453); experiment: Late-stage counterscreen for antagonists of kappa opioid receptor 1 (OPRK1): fluorescence-based cell-based dose response assay to identify antagonists of Sphingosine 1-Phosphate Receptor 1 (S1P1).; format: functional
[16] = molecular target: Potassium channel subfamily K member 9 (Homo sapiens, UniProt Q9NPC2); experiment: TASK3 (KCNK9) channel inhibitors, thallium flux, SAR follow-up, selectivity assay for TASK1 inhibitor project, cell-based, FluxOR thallium flux, concentration-response (AID 652211); format: functional;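 further: potency is for inhibitors of the channel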
[17] = molecular target: Potassium channel subfamily K member 3 (Homo sapiens, UniProt O14649); experiment: TASK1 (KCNK3) potassium channel inhibitors, SAR follow-up, CHO cells, FluxOR thallium flux (AID 652212); format: functional
Albumin = Albumin (Bos taurus, UniProt P02769); experiment: Counterscreen for inhibitors of T-cell receptor (TCR)-CD3 interaction: Fluorescence-based biochemical high throughput dose response assay to identify inhibitors of T-cell receptor (TCR)-CD3 interaction using a TAMRA-labeled BSA probe.; format: functional
Chain of Albumin (P02769 whole entry): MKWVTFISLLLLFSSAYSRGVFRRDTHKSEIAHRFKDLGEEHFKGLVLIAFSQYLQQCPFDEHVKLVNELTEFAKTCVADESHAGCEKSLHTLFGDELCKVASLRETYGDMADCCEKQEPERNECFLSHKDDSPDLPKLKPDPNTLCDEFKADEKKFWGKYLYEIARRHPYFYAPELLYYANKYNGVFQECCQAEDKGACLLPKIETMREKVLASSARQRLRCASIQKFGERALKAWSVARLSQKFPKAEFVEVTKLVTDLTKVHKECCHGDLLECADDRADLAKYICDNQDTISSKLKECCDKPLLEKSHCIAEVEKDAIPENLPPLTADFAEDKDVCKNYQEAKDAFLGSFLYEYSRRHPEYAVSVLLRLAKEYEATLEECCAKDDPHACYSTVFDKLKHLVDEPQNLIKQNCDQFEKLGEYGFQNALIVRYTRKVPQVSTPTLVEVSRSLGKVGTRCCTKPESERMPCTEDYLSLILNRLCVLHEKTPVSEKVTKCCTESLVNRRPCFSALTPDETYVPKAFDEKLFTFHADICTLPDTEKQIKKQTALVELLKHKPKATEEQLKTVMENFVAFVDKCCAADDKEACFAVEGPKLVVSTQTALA

Chain of Paired box protein Pax-8 (Q06710 whole entry): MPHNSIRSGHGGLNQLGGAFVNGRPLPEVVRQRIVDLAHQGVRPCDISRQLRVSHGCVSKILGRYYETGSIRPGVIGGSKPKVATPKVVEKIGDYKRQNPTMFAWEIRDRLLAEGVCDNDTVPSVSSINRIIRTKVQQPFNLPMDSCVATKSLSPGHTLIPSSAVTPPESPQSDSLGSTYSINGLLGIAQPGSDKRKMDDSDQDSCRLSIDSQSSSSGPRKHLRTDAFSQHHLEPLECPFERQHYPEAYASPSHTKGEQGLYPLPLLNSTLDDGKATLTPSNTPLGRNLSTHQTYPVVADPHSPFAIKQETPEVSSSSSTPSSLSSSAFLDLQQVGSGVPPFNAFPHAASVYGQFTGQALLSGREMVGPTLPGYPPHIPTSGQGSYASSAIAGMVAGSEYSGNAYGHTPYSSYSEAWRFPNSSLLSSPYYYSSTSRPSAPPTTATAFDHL
Chain of Potassium channel subfamily K member 3 (O14649 whole entry): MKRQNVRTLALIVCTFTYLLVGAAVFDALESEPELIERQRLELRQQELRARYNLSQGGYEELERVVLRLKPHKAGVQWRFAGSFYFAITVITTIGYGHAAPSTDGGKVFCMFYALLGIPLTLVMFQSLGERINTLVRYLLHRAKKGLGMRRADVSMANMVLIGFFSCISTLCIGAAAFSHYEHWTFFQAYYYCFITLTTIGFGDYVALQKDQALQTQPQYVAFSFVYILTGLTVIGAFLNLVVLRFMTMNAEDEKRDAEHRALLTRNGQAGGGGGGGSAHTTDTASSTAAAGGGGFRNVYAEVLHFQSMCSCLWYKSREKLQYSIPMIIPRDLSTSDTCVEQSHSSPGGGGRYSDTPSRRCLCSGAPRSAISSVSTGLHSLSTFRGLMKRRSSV
Chain of Sphingosine 1-phosphate receptor 1 (P21453 whole entry): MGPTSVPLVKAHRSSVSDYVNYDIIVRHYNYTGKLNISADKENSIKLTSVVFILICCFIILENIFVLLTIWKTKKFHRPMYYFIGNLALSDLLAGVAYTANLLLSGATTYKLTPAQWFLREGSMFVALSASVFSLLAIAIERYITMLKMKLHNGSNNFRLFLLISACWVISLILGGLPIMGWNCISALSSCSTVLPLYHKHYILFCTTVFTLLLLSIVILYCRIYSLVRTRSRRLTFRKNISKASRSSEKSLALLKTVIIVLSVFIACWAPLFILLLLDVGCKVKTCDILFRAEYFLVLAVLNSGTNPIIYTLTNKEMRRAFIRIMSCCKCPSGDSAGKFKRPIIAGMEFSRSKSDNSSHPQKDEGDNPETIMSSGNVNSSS
Chain of Potassium channel subfamily K member 9 (Q9NPC2 whole entry): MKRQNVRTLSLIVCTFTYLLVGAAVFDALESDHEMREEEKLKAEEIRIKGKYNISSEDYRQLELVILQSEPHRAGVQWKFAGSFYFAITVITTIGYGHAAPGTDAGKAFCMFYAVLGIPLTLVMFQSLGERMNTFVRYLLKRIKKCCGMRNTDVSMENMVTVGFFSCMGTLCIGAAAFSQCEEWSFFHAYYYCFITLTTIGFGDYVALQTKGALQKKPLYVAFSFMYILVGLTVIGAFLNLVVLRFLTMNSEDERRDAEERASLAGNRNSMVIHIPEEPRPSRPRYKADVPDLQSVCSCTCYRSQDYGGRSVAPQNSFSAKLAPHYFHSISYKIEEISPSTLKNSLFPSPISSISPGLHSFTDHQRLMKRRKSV
Chain of Protein Wnt-3a (P27467 whole entry): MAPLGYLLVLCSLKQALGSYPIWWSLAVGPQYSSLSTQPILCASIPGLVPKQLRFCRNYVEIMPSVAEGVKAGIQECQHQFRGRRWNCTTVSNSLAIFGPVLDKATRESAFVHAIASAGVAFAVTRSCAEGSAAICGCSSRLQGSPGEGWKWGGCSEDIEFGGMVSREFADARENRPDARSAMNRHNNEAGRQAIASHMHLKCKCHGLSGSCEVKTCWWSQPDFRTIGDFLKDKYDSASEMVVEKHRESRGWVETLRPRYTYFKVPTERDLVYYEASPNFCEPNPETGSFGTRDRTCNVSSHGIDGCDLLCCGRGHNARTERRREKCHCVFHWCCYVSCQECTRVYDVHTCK
Chain of Delta-type opioid receptor (P41143 whole entry): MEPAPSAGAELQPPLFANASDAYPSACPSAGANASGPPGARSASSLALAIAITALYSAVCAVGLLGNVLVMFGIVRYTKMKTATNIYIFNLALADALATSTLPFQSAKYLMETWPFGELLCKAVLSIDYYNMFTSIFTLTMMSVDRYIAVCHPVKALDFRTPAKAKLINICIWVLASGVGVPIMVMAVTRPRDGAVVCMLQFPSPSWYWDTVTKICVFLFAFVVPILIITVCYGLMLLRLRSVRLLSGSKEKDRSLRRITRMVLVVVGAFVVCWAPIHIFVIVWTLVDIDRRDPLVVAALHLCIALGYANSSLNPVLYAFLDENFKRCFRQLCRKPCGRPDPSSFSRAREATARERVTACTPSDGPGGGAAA
Chain of Kappa-type opioid receptor (P41145 whole entry): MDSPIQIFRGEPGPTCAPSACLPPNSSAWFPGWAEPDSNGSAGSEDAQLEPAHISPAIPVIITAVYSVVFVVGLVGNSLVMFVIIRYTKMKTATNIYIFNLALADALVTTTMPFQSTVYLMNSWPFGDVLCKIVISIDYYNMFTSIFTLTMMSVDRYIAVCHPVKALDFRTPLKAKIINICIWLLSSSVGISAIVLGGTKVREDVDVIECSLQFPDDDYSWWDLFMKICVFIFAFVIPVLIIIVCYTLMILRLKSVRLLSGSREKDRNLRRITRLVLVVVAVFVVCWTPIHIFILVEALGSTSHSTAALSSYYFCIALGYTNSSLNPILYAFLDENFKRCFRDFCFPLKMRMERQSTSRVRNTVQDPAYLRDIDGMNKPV
Chain of Mu-type opioid receptor (P35372 whole entry): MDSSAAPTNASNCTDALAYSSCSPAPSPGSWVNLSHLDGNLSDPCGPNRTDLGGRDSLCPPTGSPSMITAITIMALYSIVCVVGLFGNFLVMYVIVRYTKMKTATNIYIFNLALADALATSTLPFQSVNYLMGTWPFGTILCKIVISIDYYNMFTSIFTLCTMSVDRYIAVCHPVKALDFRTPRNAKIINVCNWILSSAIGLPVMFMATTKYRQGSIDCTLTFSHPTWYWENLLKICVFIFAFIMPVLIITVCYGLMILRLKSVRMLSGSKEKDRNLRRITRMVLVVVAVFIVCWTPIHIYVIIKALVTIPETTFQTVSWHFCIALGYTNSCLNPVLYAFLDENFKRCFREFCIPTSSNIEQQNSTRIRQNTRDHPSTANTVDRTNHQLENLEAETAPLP

SMILES: COC(=O)C1=C(C)N(CC(C)C)C(=S)NC1c1ccc(Cl)cc1 (stereo not given)
- AC50 (Cryptococcus neoformans): 24 µM (active)
- AC50 (Cryptococcus neoformans; Cryptococcus neoformans): 36.5 µM (active)
- AC50 (HeLa): > 60 µM (inactive)

SMILES: C[C@H]1CN([C@@H](C)CO)C(=O)CCCn2nncc2CO[C@@H]1CN(C)C(=O)Nc1ccc(-c2cccs2)cc1
- AC50 (Paired box protein Pax-8): 0.48 µM (active)
- AC50 [1]: > 70 µM (inactive)
- AC50 [2]: 7.43 µM (active)

SMILES: COc1ccc(C#Cc2cnc3c(c2)C(=O)N([C@@H](C)CO)C[C@H](C)[C@H](CN(C)CC2CCCC2)O3)cc1
- AC50 [3]: 25.2 µM (active)

SMILES: COc1ccc(NC(=O)N2CC(=O)N3[C@H](C2)[C@H](c2ccc(/C=C/c4ccccc4)cc2)[C@@H]3CO)cc1
- AC50 (Paired box protein Pax-8): 5.72 µM (active)
- AC50 [4]: 26 µM (active)
- AC50 [5]: 12.4 µM (active)
- AC50 [6]: 30.6 µM (active)
- AC50 [7]: 23.2 µM (active)

SMILES: C[C@H](CO)N1C[C@H](C)[C@H](CN(C)C(=O)Nc2ccccc2)OCCCC[C@H](C)Oc2ccc(NC(=O)Nc3ccccc3)cc2C1=O
- AC50 [8]: > 52 µM (inactive)
- AC50 [9]: 16.9 µM (active)

SMILES: Fc1cccc(-c2nnc(SCc3ccccn3)o2)c1
- IC90 [10]: 4 µM (active)
- IC90 [11]: 4 µM (active)
- IC90 [12]: 125 µM (active)

SMILES: Cc1nc(NC(=O)c2ccccc2)cc(N(C)C)n1
- IC50 (Protein Wnt-3a): > 21.8 µM (inactive)

SMILES: O=C(c1cnn(-c2ccc(Cl)cc2)c1C(F)(F)F)N1CCN(c2ncnc3ccsc23)CC1
- IC50 [13]: 1.05 µM (active)
- IC50 (Mu-type opioid receptor): > 50 µM (inactive)
- IC50 [14]: > 50 µM (inactive)
- IC50 [15]: > 50 µM (inactive)

SMILES: COc1ccccc1NC(=O)c1cccc(NC(=O)c2ccccc2)c1
- IC50 [16]: 1.41 µM (active)
- IC50 [17]: 64 nM (active)

SMILES: O=c1c2c(-c3ccc(Cl)cc3)csc2ncn1/N=C/c1cccc([N+](=O)[O-])c1O
- IC50 (Albumin): > 94.1 µM (inactive)
